Reference: US10364263B2, “Cyclic phosphates and cyclic phosphoramidates for the treatment of neurologic disorders” (Retrophin, Inc., priority 2015, dated 2019)
Read-outs that look alike come from different tables or passages of the source.

Key:
[1] = test system: PANK2 silenced human neuroblastoma IMR32 cells (PANK2−/−); experiment: Coenzyme A assay in PANK2 silenced cells (LC-MS quantification of free CoA); assay type: cell-based; conditions: compound added twice (24 h + 24 h), relative to 0.1% DMSO controls
Outline: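 PANK2 shRNA-silenced IMR32 neuroblastoma cells were treated with compound (0.1% DMSO) for 24 h, then re-dosed with fresh compound for a further 24 h at 37 °C. TFA extracts of 1×10^6 cells were assayed for free CoA by LC-MS/MS (MRM 768.1→261.6/136.1). Results are given as fold change versus DMSO controls.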

[2] = Stability in mouse hepatocytes; assay type: in vitro ADME
[3] = Stability in human hepatocytes; assay type: in vitro ADME; conditions: for half-life at 5 µM: t1/2, Human Hepatocytes; for half-life: 5 μM, 1 million cells/ml, 37° C., human hepatocytes
[4] = Stability in mouse plasma; assay type: in vitro ADME
Outline: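 Test compound at 3 μM (0.1% DMSO) was incubated in mouse or human plasma at 37 °C and sampled in duplicate at 0, 10, 20, 30, 40 and 60 min. Reactions were stopped with acetonitrile/formic acid containing internal standard. Remaining parent was measured by UPLC-MS/MS without a calibration curve.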

[5] = t1/2, Mouse Hepatocytes, Diastereoisomer A
[6] = t1/2, Mouse Hepatocytes, Diastereoisomer B
[7] = Diastereoisomer A (upfield shift in 31P NMR), 3 μM, 37° C., mouse plasma, read-out: t1/2, Mouse Plasma, Diastereoisomer A
[8] = Diastereoisomer B, 3 μM, 37° C., mouse plasma
[9] = Diastereoisomer A (upfield shift in 31P NMR), 5 μM, 1 million cells/ml, 37° C., mouse hepatocytes, read-out: t1/2, Mouse Hepatocytes, Diastereoisomer A (converted)
[10] = Diastereoisomer B, 5 μM, 1 million cells/ml, 37° C., mouse hepatocytes, read-out: t1/2, Mouse Hepatocytes, Diastereoisomer B (converted)
[11] = Diastereoisomer A (upfield shift in 31P NMR), read-out: t1/2, Human Hepatocytes, Diastereoisomer A (converted)
[12] = Diastereoisomer B, read-out: t1/2, Human Hepatocytes, Diastereoisomer B (converted)

Row | half-life at 5 µM [2, 5] | half-life at 5 µM [2, 6] | half-life at 5 µM ([3]; Diastereoisomer A) | half-life at 5 µM ([3]; Diastereoisomer B) | half-life at 3 µM ([4]; mouse, plasma) | t1/2, Mouse Plasma, Diastereoisomer B ([4]; mouse, plasma, 3 µM) | SMILES | PANK2−/− CoA (Fold Increase): fold increase in Coenzyme A (CoA) levels relative to controls [1] | half-life at 3 µM [4, 7] | t1/2, Mouse Plasma, Diastereoisomer B [4, 8] | half-life at 5 µM [2, 9] | half-life at 5 µM [2, 10] | half-life [3, 11] | half-life [3, 12]
1 | < 15 min | < 15 min | 27.6 min | < 15 min |  |  | COC(=O)CCNC(=O)[C@@H]1OP(=O)(N[C@@H](C)C(=O)OCc2ccccc2)OCC1(C)C (stereo partly drawn) [Compound No. 11, Benzyl ((4R)-4-((3-methoxy-3-oxopropyl)carbamoyl)-5,5-dimethyl-2-oxido-1,3,2-dioxaphosphinan-2-yl)-L-alaninate] | 0.99 Fold Increase |  |  |  |  |  | 
2 |  |  |  |  |  |  | COC(=O)CCNC(=O)[C@@H]1OP(=O)(N[C@H](C)C(=O)OC)OCC1(C)C (stereo partly drawn) [compound 16, methyl 3-((4R)-2-(((R)-1-methoxy-1-oxopropan-2-yl)amino)-5,5-dimethyl-2-oxido-1,3,2-dioxaphosphinane-4-carboxamido)propanoate] | 1.21 Fold Increase | < 9.6 min | <9.6 min | 43.2 min | 15.6 min | > 240 min | 80.4 min
3 | 23.4 min | 26.4 min | < 15 min | < 15 min | < 9.6 min | <9.6 min | COC(=O)CCNC(=O)[C@@H]1OP(=O)(N[C@@H](C)C(=O)OCCc2ccccc2)OCC1(C)C (stereo partly drawn) [Compound No. 2, Methyl 3-((4R)-5,5-dimethyl-2-oxido-2-(((S)-1-oxo-1-phenethoxypropan-2-yl)amino)-1,3,2-dioxaphosphinane-4-carboxamido)propanoate] | 6.80 Fold Increase |  |  |  |  |  | 
4 | < 15 min | < 15 min | > 240 min | 191 min | < 9.6 min | <9.6 min | COC(=O)CCNC(=O)[C@@H]1OP(=O)(N[C@@H](C)C(=O)OCc2cccnc2)OCC1(C)C (stereo partly drawn) [compound 24, methyl 3-((4R)-5,5-dimethyl-2-oxido-2-(((S)-1-oxo-1-(pyridin-3-ylmethoxy)propan-2-yl)amino)-1,3,2-dioxaphosphinane-4-carboxamido)propanoate] | 0.92 Fold Increase |  |  |  |  |  | 
5 | < 15 min | < 15 min | 142 min | 65.4 min | < 9.6 min | <9.6 min | COC(=O)[C@H](C)NP1(=O)OCC(C)(C)[C@H](C(=O)NCCC(=O)OCc2ccncc2)O1 (stereo partly drawn) [compound 20, (2S)-methyl 2-(((4R)-5,5-dimethyl-2-oxido-4-((3-oxo-3-(pyridin-4-ylmethoxy)propyl)carbamoyl)-1,3,2-dioxaphosphinan-2-yl)amino)propanoate] | 0.9 Fold Increase |  |  |  |  |  | 
6 |  |  |  |  | < 9.6 min | <9.6 min | COC(=O)CCNC(=O)[C@@H]1OP(=O)(OCOC(=O)c2cncs2)OCC1(C)C (stereo partly drawn) [Compound No. 70, (((4R)-4-((3-methoxy-3-oxopropyl)carbamoyl)-5,5-dimethyl-2-oxido-1,3,2-dioxaphosphinan-2-yl)oxy)methyl thiazole-5-carboxylate] | 87.75 Fold Increase |  |  |  |  |  | 
7 | < 15 min | < 15 min | < 15 min | < 15 min |  |  | COC(=O)CCNC(=O)[C@@H]1OP(=O)(N[C@@H](Cc2ccccc2)C(=O)OCc2ccccc2)OCC1(C)C (stereo partly drawn) [compound 10, benzyl ((4R)-4-((3-methoxy-3-oxopropyl)carbamoyl)-5,5-dimethyl-2-oxido-1,3,2-dioxaphosphinan-2-yl)-L-phenylalaninate] | 1.05 Fold Increase |  |  |  |  |  | 
8 | < 15 min | < 15 min | < 15 min | < 15 min |  |  | COC(=O)CCNC(=O)[C@@H]1OP(=O)(OCCSC(=O)C(C)(C)C)OCC1(C)C (stereo partly drawn) [Compound No. 2-133, Methyl 3-((4R)-5,5-dimethyl-2-oxido-2-(2-(pivaloylthio)ethoxy)-1,3,2-dioxaphosphinane-4-carboxamido)propanoate] | 89.53 Fold Increase |  |  |  |  |  | 
9 |  |  |  |  |  |  | COC(=O)CCNC(=O)[C@@H]1OP(=O)(NCCN2CCCC2)OCC1(C)C (stereo partly drawn) [compound 109, methyl 3-((4R)-5,5-dimethyl-2-oxido-2-((2-(pyrrolidin-1-yl)ethyl)amino)-1,3,2-dioxaphosphinane-4-carboxamido)propanoate] | 1.87 Fold Increase | < 9.6 min |  | 203 min |  | > 240 min | 
10 | < 15 min | < 15 min | < 15 min | < 15 min | < 9.6 min | <9.6 min | COC(=O)CCNC(=O)[C@@H]1OP(=O)(OCOC(=O)OC(C)C)OCC1(C)C (stereo partly drawn) [Compound No. 69, Methyl 3-((4R)-2-(((isopropoxycarbonyl)oxy)methoxy)-5,5-dimethyl-2-oxido-1,3,2-dioxaphosphinane-4-carboxamido)propanoate] | 181.1 Fold Increase |  |  |  |  |  | 
11 |  |  |  |  |  |  | COC(=O)CCNC(=O)[C@@H]1OP(=O)(N[C@@H](C)C(=O)OC)OCC1(C)C (stereo partly drawn) [compound 5, methyl 3-((4R)-2-(((S)-1-methoxy-1-oxopropan-2-yl)amino)-5,5-dimethyl-2-oxido-1,3,2-dioxaphosphinane-4-carboxamido)propanoate] | 1.15 Fold Increase | < 9.6 min | <9.6 min | 22.8 min | 18 min | 159 min | 60 min
12 | < 15 min | < 15 min | 18.6 min | < 15 min | < 9.6 min | <9.6 min | COC(=O)CCNC(=O)[C@@H]1OP(=O)(NCCC(=O)OCc2ccccc2)OCC1(C)C (stereo partly drawn) [compound 117, benzyl 3-(((4R)-4-((3-methoxy-3-oxopropyl)carbamoyl)-5,5-dimethyl-2-oxido-1,3,2-dioxaphosphinan-2-yl)amino)propanoate] | 1.06 Fold Increase |  |  |  |  |  | 
13 | < 15 min | < 15 min | < 15 min | < 15 min | < 9.6 min | <9.6 min | COC(=O)CCNC(=O)[C@@H]1OP(=O)(N[C@@H](C)C(=O)OCc2cc(C)cc(C)c2)OCC1(C)C (stereo partly drawn) [compound 3, (2S)-3,5-dimethylbenzyl 2-(((4R)-4-((3-methoxy-3-oxopropyl)carbamoyl)-5,5-dimethyl-2-oxido-1,3,2-dioxaphosphinan-2-yl)amino)propanoate] | 1.65 Fold Increase |  |  |  |  |  | 
14 | 15 min |  | 15 min |  |  |  | CC1(C)COP(=O)(O)O[C@H]1C(=O)NCCC(=O)O [compound 108, 3-((4R)-2-hydroxy-5,5-dimethyl-2-oxido-1,3,2-dioxaphosphinane-4-carboxamido)propanoic acid] | 1.07 Fold Increase |  |  |  |  |  | 
15 | 18 min |  | 67.2 min |  | 30.6 min |  | CC(C)(C)C(=O)OCO[P@@]1(=O)OCC(C)(C)[C@H](C(=O)NCCC(=O)O)O1 [Compound No. 91, 3-((2S,4R)-5,5-dimethyl-2-oxido-2-((pivaloyloxy)methoxy)-1,3,2-dioxaphosphinane-4-carboxamido)propanoic acid] | 4.03 Fold Increase |  |  |  |  |  | 
16 | < 15 min | < 15 min | < 15 min | < 15 min | < 9.6 min | <9.6 min | COC(=O)CCNC(=O)[C@@H]1OP(=O)(OCOC(=O)c2ccccc2)OCC1(C)C (stereo partly drawn) [Compound No. 64, (((4R)-4-((3-methoxy-3-oxopropyl)carbamoyl)-5,5-dimethyl-2-oxido-1,3,2-dioxaphosphinan-2-yl)oxy)methyl benzoate] | 278.1 Fold Increase |  |  |  |  |  | 
17 | < 15 min | < 15 min | < 15 min | < 15 min | < 9.6 min | <9.6 min | COC(=O)CCNC(=O)[C@@H]1OP(=O)(OCOC(=O)C(C)(C)C)OCC1(C)C (stereo partly drawn) [Compound No. 65, (((4R)-4-((3-methoxy-3-oxopropyl)carbamoyl)-5,5-dimethyl-2-oxido-1,3,2-dioxaphosphinan-2-yl)oxy)methyl pivalate] | 222.6 Fold Increase |  |  |  |  |  | 
